Experimental data taken from patent publication US20260097047A1, “Small molecule inhibitors of the ribosome biogenesis factor NVL2” (Board of Regents, The University of Texas System, priority 2023, published 2026).

Assays:
[1] = system: HCT116 cells; test: Genome-wide CRISPR/Cas9 knockout screen in HCT116 cells; format: cell-based, human; settings: 1 μM pulsed intermittently over 21 days
Excerpt: To better understand how inhibition of NVL by MM017 leads to cell death, we performed a genome wide pooled CRISPR/Cas9 knockout screen in HCT116 cells using a library of guide RNAs targeting 19,114 genes. Cells were pulsed intermittently with vehicle or MM017 over 21 days, at which point MM017 treated cells had undergone 9.79 fewer population doublings. Massively parallel sequencing of PCR products amplified from genomic DNA was used to determine relative levels of sgRNA sequences to infer the relative impact of each gene on compound sensitivity. […]
HCT116 cells stably expressing Cas9 were generated by infecting cells with lentiCas9-Blast (Addgene #52962) and selection with 10 μg/mL blasticidin. […] Viable cells were counted at each passage and collected after 21 days. Genomic DNA was extracted using Blood & Cell Culture DNA Maxi kit (QIAGEN #13362), and concentrations were determined using Quant-iT PicoGreen dsDNA assay kits (Invitrogen #P7589). sgRNAs were PCR-amplified using 28 cycles from approximately 650 μg genomic DNA (10 μg DNA/100 μL reaction) using Ex Taq DNA Polymerase (TaKaRa #RR001B), 8 staggered P5 primers, and 1 unique P7 index primer per sample as described in the “Protocol PCR of sgRNAs from gDNA for Illumina sequencing” published by the Broad Institute (51). […] The mapping reads were counted for each sgRNA using SAMtools (v1.9) with the options “-F 2308-q 1”. […]

[2] = system: 60S, 80S and 40S ribosomal subunits; test: Polysome profiling; format: cell-based, human
Excerpt: NVL2 in yeast is essential for 60S ribosomal maturation, and therefore, we hypothesized that MM017 might decrease 60S ribosome synthesis. To test this hypothesis, we subjected either parental or NVL mutant cells treated with MM017 for different time points to polysome profiling. Polysome profiling uses a sucrose gradient to fractionate the complete ribosome (80S) from its components, the large (60S) and small (40S) subunit. […] Since the 80S is a complex of the 40S and 60S ribosomes, fewer 60S ribosomes are expected to result in increased free 40S subunits. All of these changes are the result of binding NVL2 since they were not present in the NVL2^R403W mutant cells. Taken together, these observations indicate that MM017 inhibits NVL2 leading to reduced 60S ribosome.
We next assessed the impact of disrupting NVL on the distribution of ribosomal species using polysome profiling. Addition of Ph-IAA to induce NVL degradation in NVL^AID/AID cells led to a time-dependent reduction in free 60S and 80S levels (based on absorbance at 260 nm) and a concomitant increase in 40S levels. […] The polysome profiles following NVL disruption in HCT116 cells appear similar to those reported in yeast with RIX7 mutations (37) or in human cells overexpressing catalytic mutants of NVL (38).

[3] = system: p53 KO and p21 KO HCT116 cells; test: Growth competition of p53 or p21 knockout versus control HCT116 cells; format: cell-based, human
Excerpt: To better understand how inhibition of NVL by MM017 leads to cell death, we performed a genome wide pooled CRISPR/Cas9 knockout screen in HCT116 cells using a library of guide RNAs targeting 19,114 genes. Cells were pulsed intermittently with vehicle or MM017 over 21 days, at which point MM017 treated cells had undergone 9.79 fewer population doublings. Massively parallel sequencing of PCR products amplified from genomic DNA was used to determine relative levels of sgRNA sequences to infer the relative impact of each gene on compound sensitivity. […] To confirm whether p53 and p21 are required for the anti-proliferative activity of MM017, we performed a growth competition experiment between cells expressing ZsGreen with either p53 or p21 knockout (KO) and control cells expressing mCherry. Without treatment, the ratio between green and red cells was unchanged over time.

[4] = system: p53 and p21 in HCT116 NVL^R403W tumors; test: Pharmacodynamic study: p53 and p21 in HCT116 NVL^R403W xenograft tumors; format: in vivo, mouse; settings: 35 mg/kg IP, opposing flank of same mice
Description: Plasma exposure was dose-dependent up to 35 mg/kg (IP injection) reaching a maximum concentration at 17.86 μM. These levels exceed the anti-proliferative IC99 of MM927 in cells expressing either human or mouse NVL. In a subsequent pharmacodynamic (PD) study, we asked if we could assess on-target NVL inhibition via a subsequent p53 and/or p21 induction in tumor xenografts in mice treated with MM927. We implanted HCT116 NVL^WT and NVL^R403W cells subcutaneously on either flank of the mice and evaluated the levels of p53 and p21 in either tumor at various time points after IP administration of 35 mg/kg of MM927.
Pharmacodynamic study: Five million parental HCT116 cells or HCT116 NVL^R403W in a volume of 0.1 mL were implanted using a subcutaneous injection in the left and right side of four-to-eight-week-old male and female NSG mice, respectively. Tumor volumes were measured every 2 to 4 days with calipers. When the tumor diameter reached 0.5 cm in diameter, mice were dosed with 35 mg/kg MM927 or vehicle formulated as 10% DMSO/10% Kolliphor EL/10% Solutal/70% D5W and administered via the intraperitoneal route. At each time point (0, 3, 6, 12, 24 hours post dose), tumors were harvested and flash frozen for Western blot analysis for p53 and p21 as described.

Row | SMILES | fewer population doublings than vehicle [1] | polysome profile, NVL^P307T cells ([2]; NVL^P307T) | polysome profile, parental cells ([2]; parental HCT116) | enrichment of p53 or p21 KO cells in growth competition [3] | p53 and p21 in NVL^R403W tumor [4]
1 | COCCN1C(=O)c2ccccc2Sc2cc(NC(=O)c3ccoc3)ccc21 [MM017] | 9.79 | no changes in polysome profiles | time-dependent decrease in the 60S and 80S ribosomal subunits | dose-dependent enrichment of either p53 or p21 KO cells | 
2 | CC#CCN1C(=O)c2ccc(F)cc2Sc2cc(NC(=O)c3ccc4oc(=O)n(C)c4c3)ccc21 [MM927, N-(10-(But-2-yn-1-yl)-3-fluoro-11-oxo-10,11-dihydrodibenzo[b,f][1,4]thiazepin-7-yl)-3-methyl-2-oxo-2,3-dihydrobenzo[d]oxazole-5-carboxamide] |  |  |  |  | no change in p53 and p21
